Assays:
[1] = biological target: T1, GST-tagged FAK (Homo sapiens, UniProt Q05397); assay: Biochemical assay for FAK activity, Assay 1: phosphorylation of peptide substrate with radio-labeled ATP; conditions: 5 μM ATP, 30 min pre-incubation, read-out: Assay 1 FAK TRF PXC50 (converted)
T1 construct: purchased Invitrogen PV3832
Experimental: GST-tagged (glutathione S-transferase-tagged) FAK was purchased from Invitrogen (PV3832) (www.invitrogen.com). […] To measure inhibitors of FAK, compounds were first prepared as a 10× stock in 10% DMSO. […] A 6-nM GST-FAK solution was prepared in 1.1× reaction buffer containing 44 mM HEPES, pH=7.2, 11 mM MgCl2, 2.2 mM MnCl2, 1.1 mM DTT and 0.011% Tween-20. Then, 20 μL of the 6 nM GST-FAK solution were pre-incubated with the compounds for 30 min at room temperature. […] The reaction was allowed to proceed for 90 min before being quenched with 40 μL of 1% H3PO4. A portion of the reaction mixture (60 μL) was transferred to a phospho-cellulose filter plate (Millipore; www.millipore.com, MAPHNOB50) and incubated for 20 minutes. The plate was filtrated, washed three times using 150 μL of 0.5% H3PO4 and dried at 50° C. for 30 min. After the addition of 60 μL Microscint-20 to the plate, radioactivity was measured using a TopCount (PerkinElmer; www.PerkinElmer.com).

[2] = biological target: T2, Full length Human FAK (Flag-His-TEV-FAK1) (Homo sapiens, UniProt Q05397); assay: Biochemical assay for FAK activity, Assay 2: LANCE Ultra ULight peptide phosphorylation, 665 nm/615 nm ratio; conditions: Flag-His-TEV-FAK1, 10 μM ATP, 30 min pre-incubation; read-out: Assay 2 FAK H 31284A TRF PXC50 (converted)
T2 construct: Full length Human FAK was expressed using baculovirus in Sf9 cells; made in house; host or cells: baculovirus in Sf9 cells
T2 sequence (Q05397 whole entry): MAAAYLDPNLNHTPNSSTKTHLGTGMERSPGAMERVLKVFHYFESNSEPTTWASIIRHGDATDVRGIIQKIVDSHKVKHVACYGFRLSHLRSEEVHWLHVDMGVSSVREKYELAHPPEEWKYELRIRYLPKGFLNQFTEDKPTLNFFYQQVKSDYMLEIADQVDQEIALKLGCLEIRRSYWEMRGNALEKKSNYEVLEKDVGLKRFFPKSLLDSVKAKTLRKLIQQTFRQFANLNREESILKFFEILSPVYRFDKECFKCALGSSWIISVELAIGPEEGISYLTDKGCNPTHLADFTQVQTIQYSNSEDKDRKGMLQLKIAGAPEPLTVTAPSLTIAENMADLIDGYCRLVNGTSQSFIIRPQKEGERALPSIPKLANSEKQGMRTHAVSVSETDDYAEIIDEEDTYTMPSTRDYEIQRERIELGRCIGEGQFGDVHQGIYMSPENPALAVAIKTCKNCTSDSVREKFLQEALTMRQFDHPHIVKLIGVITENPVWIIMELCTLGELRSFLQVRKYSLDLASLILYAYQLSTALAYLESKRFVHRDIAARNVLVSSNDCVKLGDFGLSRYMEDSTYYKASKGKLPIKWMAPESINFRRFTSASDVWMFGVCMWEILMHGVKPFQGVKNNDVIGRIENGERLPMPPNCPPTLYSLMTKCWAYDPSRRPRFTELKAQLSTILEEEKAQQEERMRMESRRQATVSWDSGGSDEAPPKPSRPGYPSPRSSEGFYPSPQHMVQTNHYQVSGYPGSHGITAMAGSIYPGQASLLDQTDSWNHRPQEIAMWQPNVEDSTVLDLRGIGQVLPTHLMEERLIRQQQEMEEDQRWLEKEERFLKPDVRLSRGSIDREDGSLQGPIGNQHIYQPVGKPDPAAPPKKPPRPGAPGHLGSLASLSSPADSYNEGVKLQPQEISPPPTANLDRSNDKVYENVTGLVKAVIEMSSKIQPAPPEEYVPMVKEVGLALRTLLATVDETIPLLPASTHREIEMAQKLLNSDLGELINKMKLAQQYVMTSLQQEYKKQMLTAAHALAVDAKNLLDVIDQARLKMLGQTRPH
Experimental: Flag-His-TEV-FAK1 was prepared in-house. Full length Human FAK was expressed using baculovirus in Sf9 cells with N-terminal FLAG-6×His tags followed by a TEV cleavage site (FLAG-6×His-TEV-huFAK). […] To measure inhibitors of FAK, compounds were first prepared as a 100× stock in 100% DMSO. […] After incubating for 120 minutes at room temperature, the reaction is quenched by adding 5 uL of 20 mM EDTA and 5nMEu-Anti-pTyr antibody in 1× LANCE detection buffer.

T1 sequence (Q05397 whole entry): as above

IC50 [1] [nM] | IC50 [2] [nM] | Compound
1 | 6.31 | CNC(=O)c1cc(F)c(F)cc1Nc1cc(Nc2cc(C)nn2C)ncc1Cl [Example 9, 2-({5-Chloro-2-[(1,3-dimethyl-1H-pyrazol-5-yl)amino]-4-pyridinyl}amino)-4,5-difluoro-N-methylbenzamide]
2 | 6.31 | CNC(=O)c1cc(Cl)ccc1Nc1cc(Nc2cc(C)nn2C)ncc1Cl [Example 11, 5-Chloro-2-({5-chloro-2-[(1,3-dimethyl-1H-pyrazol-5-yl)amino]-4-pyridinyl}amino)-N-methylbenzamide]
2.51 | 5.01 | CCn1nccc1Nc1cc(Nc2ccc(Cl)cc2C(=O)NC)c(Cl)cn1 [Example 12, 5-Chloro-2-({5-chloro-2-[(1-ethyl-1H-pyrazol-5-yl)amino]-4-pyridinyl}amino)-N-methylbenzamide]
0.398 | 3.98 | CNC(=O)c1ccccc1Nc1cc(Nc2cn(C)nc2C)ncc1Cl [Example 26, 2-({5-Chloro-2-[(1,3-dimethyl-1H-pyrazol-4-yl)amino]-4-pyridinyl}amino)-N-methylbenzamide]
0.398 | 2.51 | CNC(=O)c1ccccc1Nc1cc(Nc2cc(C)nn2C)ncc1C(F)(F)F [Example 28, 2-{[2-[(1,3-Dimethyl-1H-pyrazol-5-yl)amino]-5-(trifluoromethyl)-4-pyridinyl]amino}-N-methylbenzamide]
0.501 | 2 | CCn1nccc1Nc1cc(Nc2ccccc2C(=O)NC)c(C(F)(F)F)cn1 [Example 29, 2-{[2-[(1-Ethyl-1H-pyrazol-5-yl)amino]-5-(trifluoromethyl)-4-pyridinyl]amino}-N-methylbenzamide]
0.398 | 1.58 | CNC(=O)c1ccccc1Nc1cc(Nc2cc(C)nn2C(C)C)ncc1C(F)(F)F [Example 30, N-Methyl-2-{[2-[(3-methyl-1-(1-methylethyl)-1H-pyrazol-5-yl]amino}-5-(trifluoromethyl)-4-pyridinyl]amino}benzamide]
0.398 | 1.58 | CONC(=O)c1ccccc1Nc1cc(Nc2cc(C)nn2C)ncc1Cl [Example 36, 2-({5-Chloro-2-[(1,3-dimethyl-1H-pyrazol-5-yl)amino]-4-pyridinyl}amino)-N-(methyloxy)benzamide]
251 | 1000 | Cc1cc(Nc2cc(Nc3ccccc3C(=O)NOCCN(C)C)c(Cl)cn2)n(C)n1 [Example 38, 2-({5-Chloro-2-[(1,3-dimethyl-1H-pyrazol-5-yl)amino]-4-pyridinyl}amino)-N-{[2-(dimethylamino)ethyl]oxy}benzamide]
0.398 | 5.01 | CCn1nc(C)cc1Nc1cc(Nc2ccccc2C(=O)NOC)c(Cl)cn1 [Example 39, 2-({5-Chloro-2-[(1-ethyl-3-methyl-1H-pyrazol-5-yl)amino]-4-pyridinyl}amino)-N-(methyloxy)benzamide]
1.26 | 2.51 | CCn1nccc1Nc1cc(Nc2ccccc2C(=O)NOC)c(Cl)cn1 [Example 40, 2-({5-Chloro-2-[(1-ethyl-1H-pyrazol-5-yl)amino]-4-pyridinyl}amino)-N-(methyloxy)benzamide]
0.398 | 2 | CONC(=O)c1ccccc1Nc1cc(Nc2cc(C)nn2C(C)C)ncc1Cl [Example 41, 2-[(5-Chloro-2-{[3-methyl-1-(1-methylethyl)-1H-pyrazol-5-yl]amino}-4-pyridinyl)amino]-N-(methyloxy)benzamide]
12.6 | 50.1 | CCNC(=O)c1ccccc1Nc1cc(Nc2cc(C)nn2CC)ncc1Cl [Example 42, 2-({5-Chloro-2-[(1-ethyl-3-methyl-1H-pyrazol-5-yl)amino]-4-pyridinyl}amino)-N-ethylbenzamide]
5.01 | 25.1 | CCNC(=O)c1ccccc1Nc1cc(Nc2cc(C)nn2C)ncc1Cl [Example 43, 2-({5-Chloro-2-[(1,3-dimethyl-1H-pyrazol-5-yl)amino]-4-pyridinyl}amino)-N-ethylbenzamide]
10 | 63.1 | CCNC(=O)c1ccccc1Nc1cc(Nc2cc(C)nn2C(C)C)ncc1Cl [Example 45, 2-[(5-Chloro-2-{[3-methyl-1-(1-methylethyl)-1H-pyrazol-5-yl]amino}-4-pyridinyl)amino]-N-ethylbenzamide]
0.631 | 5.01 | CNC(=O)c1ccccc1Nc1cc(Nc2cnn(C)c2C)ncc1Cl [Example 59, 2-({5-Chloro-2-[(1,5-dimethyl-1H-pyrazol-4-yl)amino]-4-pyridinyl}amino)-N-methylbenzamide]

Compound | IC50 [1] [nM] | IC50 [2] [nM]
CCn1nc(C)cc1Nc1cc(Nc2ccccc2C(=O)NC)c(Cl)cn1 [Example 13, 2-({5-Chloro-2-[(1-ethyl-3-methyl-1H-pyrazol-5-yl)amino]-4-pyridinyl}amino)-N-methylbenzamide] | 0.501 | 2
CNC(=O)c1ccccc1Nc1cc(Nc2cc(C(C)(C)C)nn2C)ncc1Cl [Example 14, 2-[(5-Chloro-2-{[3-(1,1-dimethylethyl)-1-methyl-1H-pyrazol-5-yl)amino]-4-pyridinyl}amino]-N-methylbenzamide] | 2.51 | 20
CCn1nc(CO)cc1Nc1cc(Nc2ccccc2C(=O)NC)c(Cl)cn1 [Example 15, 2-[(5-Chloro-2-{[1-ethyl-3-(hydroxymethyl)-1H-pyrazol-5-yl]amino}-4-pyridinyl)amino]-N-methylbenzamide] | 2.51 | 20
CNC(=O)c1ccccc1Nc1cc(Nc2cc(C)nn2CCO)ncc1Cl [Example 16, 2-[(5-Chloro-2-{[1-(2-hydroxyethyl)-3-methyl-1H-pyrazol-5-yl]amino}-4-pyridinyl)amino]-N-methylbenzamide] | 1.26 | 20
CCOC(=O)c1cc(Nc2cc(Nc3ccccc3C(=O)NC)c(Cl)cn2)n(CC)n1 [Example 17, Ethyl 5-{[5-chloro-4-({2-[(methylamino)carbonyl]phenyl}amino)-2-pyridinyl]amino}-1-ethyl-1H-pyrazole-3-carboxylate] | 1.26 | 39.8
CCn1nc(C(=O)NOC)cc1Nc1cc(Nc2ccccc2C(=O)NC)c(Cl)cn1 [Example 19, 5-{[5-Chloro-4-({2-[(methylamino)carbonyl]phenyl}amino)-2-pyridinyl]amino}-1-ethyl-N-(methyloxy)-1H-pyrazole-3-carboxamide] | 5.01 | 63.1
CCn1nc(C(=O)NC)cc1Nc1cc(Nc2ccccc2C(=O)NC)c(Cl)cn1 [Example 20, 5-{[5-Chloro-4-({2-[(methylamino)carbonyl]phenyl}amino)-2-pyridinyl]amino}-1-ethyl-N-methyl-1H-pyrazole-3-carboxamide] | 10 | 39.8
CNC(=O)c1ccccc1Nc1cc(Nc2cc(C)nn2CC(F)(F)F)ncc1Cl [Example 21, 2-[(5-Chloro-2-{[3-methyl-1-(2,2,2-trifluoroethyl)-1H-pyrazol-5-yl]amino}-4-pyridinyl)amino]-N-methylbenzamide] | 3.16 | 63.1
CNC(=O)c1ccccc1Nc1cc(Nc2ccnn2C2CCN(C)CC2)ncc1Cl [Example 22, 2-[(5-Chloro-2-{[1-(1-methyl-4-piperidinyl)-1H-pyrazol-5-yl]amino}-4-pyridinyl)amino]-N-methylbenzamide] | 31.6 | 251
CNC(=O)c1ccccc1Nc1cc(Nc2cc(C)nn2CCN(C)C)ncc1Cl [Example 23, 2-{[5-Chloro-2-({1-[2-(dimethylamino)ethyl]-3-methyl-1H-pyrazol-5-yl}amino)-4-pyridinyl]amino}-N-methylbenzamide] | 79.4 | 200
CCn1nc(C(=O)NCCN(C)C)cc1Nc1cc(Nc2ccccc2C(=O)NC)c(Cl)cn1 [Example 24, 5-{[5-Chloro-4-({2-[(methylamino)carbonyl]phenyl}amino)-2-pyridinyl]amino}-N-[2-(dimethylamino)ethyl]-1-ethyl-1H-pyrazole-3-carboxamide] | 6.31 | 63.1
CCn1nc(C(=O)N(C)CCN(C)C)cc1Nc1cc(Nc2ccccc2C(=O)NC)c(Cl)cn1 [Example 25, 5-{[5-Chloro-4-({2-[(methylamino)carbonyl]phenyl}amino)-2-pyridinyl]amino}-N-[2-(dimethylamino)ethyl]-1-ethyl-N-methyl-1H-pyrazole-3-carboxamide] | 2.51 | 31.6
CCn1nc(C)cc1Nc1cc(Nc2ccccc2C(=O)NC)c(C(F)(F)F)cn1 [Example 32, 2-{[2-[(1-Ethyl-3-methyl-1H-pyrazol-5-yl)amino]-5-(trifluoromethyl)-4-pyridinyl]amino}-N-methylbenzamide] | 0.398 | 1

Reference: US20140155410A1 (GlaxoSmithKline LLC, priority 2008, published 2014)
